According to patent US20230219965A1 (KSQ Therapeutics, Inc., priority 2020, published 2023):
Read-outs that look alike come from different tables or passages of the source.

How the values were obtained:
[1] = Liver microsomal metabolic stability, human liver microsomes (HLM); conditions: for half-life at 1 μM: human, liver microsomes
[2] = system: Ub-PCNA levels in the nucleus of ES2 cells (USP1 activity); assay: ES2 Ub-PCNA immunofluorescence (IF) assay; format: cell-based; conditions: ES2 cells, 3 hours, Ub-PCNA immunofluorescence, read-out: USP1 IC50 (Ub-PCNA)
Procedure, shortened: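 Cells plated overnight, then compound-treated for 3 h at 37° C (0.3% DMSO final), methanol-fixed and stained with anti-Ub-PCNA plus DAPI. Per-nucleus Ub-PCNA intensity imaged; cells above the 95% cutoff of untreated wells counted as positive, and percent positive cells used to derive AC50.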

[3] = Liver microsomal metabolic stability, rat liver microsomes (RLM); conditions: 1 μM compound, 1 mg/mL microsomes, NADPH; for half-life at 1 μM: rat, liver microsomes, t1/2 (min) in RLM
[4] = ADME solubility determination in PBS at pH 2.0 and pH 7.4; format: physicochemical; conditions: for solubility at 24 h: phosphate buffered saline, 25 °C, thermodynamic from solid
Procedure, shortened: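 Dried 10 mM DMSO stock residues taken up in PBS pH 7.4 or pH 2.0, shaken 24 h at 25° C. After centrifugation, supernatant quantified by LC-MS/MS against a standard of known concentration, with a dilution factor applied.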

USP1/UAF1 enzyme = USP1/UAF1 enzyme (Homo sapiens, UniProt O94782); assay: USP1/UAF1 deubiquitination assay (ubiquitin-rhodamine 110 substrate); format: biochemical; conditions: read-out: USP1 IC50 (Ub-Rho)
Procedure, shortened: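 0.05 nM USP1/UAF1 was preincubated 10 min with compounds (dose response from 10 μM) in 50 mM Tris-HCl pH 7.8, 0.5 mM EDTA, 0.01% BSA, 1 mM DTT, 0.01% Tween-20. 150 nM ubiquitin-rhodamine 110 started the reaction, read kinetically 30 min at Ex480/Em540; IC50 by four-parameter fit versus no-enzyme and DMSO controls.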

[5] = pH 2, aqueous buffer, PBS pH 2.0, 25° C., read-out: Solubility at pH 2.0
[6] = pH 7.4, aqueous buffer, PBS pH 7.4, 25° C., read-out: Solubility at pH 7.4

USP1/UAF1 enzyme, sequence (O94782 whole entry): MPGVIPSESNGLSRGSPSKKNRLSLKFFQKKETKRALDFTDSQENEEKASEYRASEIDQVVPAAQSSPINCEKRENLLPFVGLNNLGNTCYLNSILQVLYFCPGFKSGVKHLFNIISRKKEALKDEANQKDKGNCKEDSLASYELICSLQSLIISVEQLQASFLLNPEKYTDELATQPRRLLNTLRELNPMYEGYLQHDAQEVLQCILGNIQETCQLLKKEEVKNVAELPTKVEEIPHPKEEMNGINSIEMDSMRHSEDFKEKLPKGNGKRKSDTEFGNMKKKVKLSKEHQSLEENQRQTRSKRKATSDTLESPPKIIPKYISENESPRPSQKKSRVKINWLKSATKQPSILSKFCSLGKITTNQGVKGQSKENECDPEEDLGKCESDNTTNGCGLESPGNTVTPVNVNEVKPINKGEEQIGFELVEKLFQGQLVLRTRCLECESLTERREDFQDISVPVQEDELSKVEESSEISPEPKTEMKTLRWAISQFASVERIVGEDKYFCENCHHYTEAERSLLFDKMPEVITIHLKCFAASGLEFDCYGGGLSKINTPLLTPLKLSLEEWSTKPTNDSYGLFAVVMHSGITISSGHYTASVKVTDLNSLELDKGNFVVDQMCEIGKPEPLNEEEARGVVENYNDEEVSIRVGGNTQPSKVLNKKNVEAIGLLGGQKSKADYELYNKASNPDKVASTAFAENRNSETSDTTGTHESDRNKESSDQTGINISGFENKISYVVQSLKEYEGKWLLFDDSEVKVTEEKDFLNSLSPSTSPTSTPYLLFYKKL
USP1/UAF1 enzyme, sequence (Q8TAF3 whole entry partner): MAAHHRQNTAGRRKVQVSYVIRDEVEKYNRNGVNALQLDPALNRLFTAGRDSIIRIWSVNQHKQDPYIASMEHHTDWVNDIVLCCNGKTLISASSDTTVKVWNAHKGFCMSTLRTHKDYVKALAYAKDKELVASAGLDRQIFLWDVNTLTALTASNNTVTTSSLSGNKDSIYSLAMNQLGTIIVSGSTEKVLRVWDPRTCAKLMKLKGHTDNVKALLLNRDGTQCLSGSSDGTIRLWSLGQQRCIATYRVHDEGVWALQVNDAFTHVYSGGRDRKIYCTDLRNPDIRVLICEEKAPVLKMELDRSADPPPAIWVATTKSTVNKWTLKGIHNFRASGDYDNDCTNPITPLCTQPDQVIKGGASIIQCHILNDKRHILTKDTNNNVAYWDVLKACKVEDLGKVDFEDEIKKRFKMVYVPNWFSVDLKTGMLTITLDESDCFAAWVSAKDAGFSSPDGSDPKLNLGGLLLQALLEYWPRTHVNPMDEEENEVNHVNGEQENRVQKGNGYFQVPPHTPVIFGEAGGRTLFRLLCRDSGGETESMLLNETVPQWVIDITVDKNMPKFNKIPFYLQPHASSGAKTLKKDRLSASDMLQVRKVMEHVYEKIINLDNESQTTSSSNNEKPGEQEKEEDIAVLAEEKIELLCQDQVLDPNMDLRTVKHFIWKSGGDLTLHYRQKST

Structure (SMILES)	half-life at 1 μM [1]	IC50 ([2]; Homo sapiens, ES-2)	half-life at 1 μM [3]	solubility at 24 h [4, 5]	solubility at 24 h [4, 6]	IC50 (USP1/UAF1 enzyme)	t1/2 (min) in HLM ([1]; human liver microsomes, 1 μM compound, 1 mg/mL microsomes, NADPH)	IC50 [2]	t1/2 (min) in RLM [3]	Solubility at pH 2.0 (μM) ([4]; PBS pH 2.0, 25° C., 24 hours)	Solubility at pH 7.4 (μM) ([4]; PBS pH 7.4, 25° C., 24 hours)
CCn1cc(C(F)(F)F)nc1-c1ccc(CC2c3cc(-c4c(Cl)cnn4C(C)C)nn3CCN2C)cc1 (stereo not drawn) [Example 360, 2-(4-chloro-1-isopropyl-1H-pyrazol-5-yl)-4-(4-(1-ethyl-4-(trifluoromethyl)-1H-imidazol-2-yl)benzyl)-5-methyl-4,5,6,7-tetrahydropyrazolo[1,5-α]pyrazine]	< 25 min	< 100 nM	< 25 min	≥ 10 µM	< 10 µM	< 100 nM					
CCn1cc(C(F)(F)F)nc1-c1ccc(CN2C(=O)C(C)Cn3nc(-c4c(OC)ncnc4C4CC4)nc32)cc1F (stereo not drawn) [Example 347, 2-(4-cyclopropyl-6-methoxypyrimidin-5-yl)-4-(4-(1-ethyl-4-(trifluoromethyl)-1H-imidazol-2-yl)-3-fluorobenzyl)-6-methyl-6,7-dihydro-[1,2,4]triazolo[1,5-α]pyrimidin-5(4H)-one]	> 25 min	< 100 nM	> 25 min	≥ 10 µM	≥ 10 µM	< 100 nM					
COc1ncnc(C2CC2)c1-c1nn2c(c1C)N(Cc1ccc(-c3nc(C(F)(F)F)cn3C)cc1)C(=O)CC2 [Example 35, 2-(4-cyclopropyl-6-methoxypyrimidin-5-yl)-3-methyl-4-(4-(1-methyl-4-(trifluoromethyl)-1H-imidazol-2-yl)benzyl)-6,7-dihydropyrazolo[1,5-α]pyrimidin-5(4H)-one]	< 25 min	> 500 nM	> 25 min	< 10 µM	< 10 µM	100 to 500 nM					
COc1ncnc(C2CC2)c1-c1nc2n(n1)CCC(=O)N2Cc1ccc(-c2nc(C(F)(F)F)cn2C(C)C)cc1 [Example 168]	> 25 min	< 100 nM	> 25 min	< 10 µM	< 10 µM	< 100 nM					
CCn1cc(C(F)(F)F)nc1-c1ccc(CN2CC(C)(C)Cn3nc(-c4c(OC)ncnc4C4CC4)cc32)cc1F [Example 327, 2-(4-cyclopropyl-6-methoxypyrimidin-5-yl)-4-(4-(1-ethyl-4-(trifluoromethyl)-1H-imidazol-2-yl)-3-fluorobenzyl)-6,6-dimethyl-4,5,6,7-tetrahydropyrazolo[1,5-α]pyrimidine]	< 25 min	< 100 nM	< 25 min	≥ 10 µM	< 10 µM	< 100 nM					
CCn1cc(C(F)(F)F)nc1-c1ccc(NC2CCCn3nc(-c4c(Cl)cnn4C(C)C)cc32)cc1OC (stereo not drawn) [Example 246, 2-(4-chloro-1-isopropyl-1H-pyrazol-5-yl)-N-(4-(1-ethyl-4-(trifluoromethyl)-1H-imidazol-2-yl)-3-methoxyphenyl)-4,5,6,7-tetrahydropyrazolo[1,5-a]pyridin-4-amine]	> 25 min	100 to 500 nM	> 25 min	≥ 10 µM	< 10 µM	< 100 nM					
CCn1cc(C(F)(F)F)nc1-c1ccc(N(C)C2CCCn3nc(-c4c(Cl)cnn4C(C)C)cc32)cc1 (stereo not drawn) [Example 258, 2-(4-chloro-1-isopropyl-1H-pyrazol-5-yl)-N-(4-(1-ethyl-4-(trifluoromethyl)-1H-imidazol-2-yl)phenyl)-N-methyl-4,5,6,7-tetrahydropyrazolo[1,5-α]pyridin-4-amine]	< 25 min	100 to 500 nM	< 25 min	< 10 µM	< 10 µM	< 100 nM					
CC(C)n1ncc(Cl)c1-c1cc2n(n1)CCCN2Cc1ccc(-c2nc(C(F)(F)F)cn2CCF)cc1 [Example 62]	< 25 min	< 100 nM	< 25 min	< 10 µM	< 10 µM	< 100 nM					
CCn1cc(C(F)(F)F)nc1-c1ccc(CN2C(=O)C(NC)Cn3nc(-c4c(Cl)cnn4C(C)C)cc32)cc1 (stereo not drawn) [Example 236, 2-(4-chloro-1-isopropyl-1H-pyrazol-5-yl)-4-(4-(1-ethyl-4-(trifluoromethyl)-1H-imidazol-2-yl)benzyl)-6-(methylamino)-6,7-dihydropyrazolo[1,5-α]pyrimidin-5(4H)-one]	< 25 min	> 500 nM	< 25 min	≥ 10 µM	< 10 µM	100 to 500 nM					
COc1ncnc(C2CC2)c1-c1nc2n(n1)CCC(=O)N2[C@@H](C)c1ccc(-c2nc(C(F)(F)F)cn2C)c(F)c1 [Example 196]	< 25 min	< 100 nM	> 25 min	≥ 10 µM	≥ 10 µM	100 to 500 nM					
CC(C)n1ncc(Cl)c1-c1nc2n(n1)CCC(=O)N2Cc1ccc(-c2nc(C(F)(F)F)cn2C)cc1 [Example 39]	> 25 min	< 100 nM	> 25 min	< 10 µM	< 10 µM	< 100 nM					
CCn1cc(C(F)(F)F)nc1-c1ccc([C@H](C)n2c(=O)ccn3nc(-c4c(OC)ncnc4C4CC4)nc23)cc1 [Example 339, (S)-2-(4-cyclopropyl-6-methoxypyrimidin-5-yl)-4-(1-(4-(1-ethyl-4-(trifluoromethyl)-1H-imidazol-2-yl)phenyl)ethyl)-[1,2,4]triazolo[1,5-a]pyrimidin-5(4H)-one]	< 25 min	< 100 nM	> 25 min	≥ 10 µM	< 10 µM	< 100 nM					
COc1cc(C(F)(F)F)nn1-c1ccc(CN2CCCn3nc(-c4c(C)cnn4C(C)C)cc32)cc1F [Example 57]	< 25 min	< 100 nM	< 25 min	< 10 µM	< 10 µM	< 100 nM					
COc1ncnc(C2CC2)c1-c1cc2n(n1)CCCC2Nc1ccc(-c2nc(C(F)(F)F)cn2C(C)CF)cc1 (stereo not drawn) [Example 248, 2-(4-cyclopropyl-6-methoxypyrimidin-5-yl)-N-(4-(1-(1-fluoropropan-2-yl)-4-(trifluoromethyl)-1H-imidazol-2-yl)phenyl)-4,5,6,7-tetrahydropyrazolo[1,5-a]pyridin-4-amine]	> 25 min	< 100 nM	> 25 min	≥ 10 µM	≥ 10 µM	< 100 nM					
CC(C)n1ncc(Cl)c1-c1cc2n(n1)CCC(=O)N2Cc1ccc(-c2nc(C(F)(F)F)cn2CCF)cc1 [Example 79]	> 25 min	< 100 nM	> 25 min	< 10 µM	< 10 µM	< 100 nM					
CCn1cc(C(F)(F)F)nc1-c1ccc(CN2CC(O)Cn3nc(-c4c(Cl)cnn4C(C)C)cc32)cc1F (stereo not drawn) [Example 267, 2-(4-chloro-1-isopropyl-1H-pyrazol-5-yl)-4-(4-(1-ethyl-4-(trifluoromethyl)-1H-imidazol-2-yl)-3-fluorobenzyl)-4,5,6,7-tetrahydropyrazolo[1,5-α]pyrimidin-6-ol]						< 100 nM	+ (“+” indicates less than 25 minutes)	< 100 nM	+ (“+” indicates less than 25 minutes)	+ (“+” indicates less than 10 μM)	+ (“+” indicates less than 10 μM)
COc1ncnc(C2CC2)c1-c1nc2n(n1)CCC(=O)N2[C@@H](C)c1ccc(-c2nc(C(F)(F)F)cn2C(C)C)cc1 [Example 188]	> 25 min	< 100 nM	> 25 min	≥ 10 µM	≥ 10 µM	100 to 500 nM					
COc1cc(CN2C(=O)CCn3nc(-c4c(OC)ncnc4C4CC4)nc32)ccc1-c1nc(C(F)(F)F)cn1C(C)C [Example 166]	> 25 min	100 to 500 nM	> 25 min	≥ 10 µM	≥ 10 µM	100 to 500 nM					
CCn1cc(C(F)(F)F)nc1-c1ccc(NC2CCCn3nc(-c4c(C#N)cnn4C(C)C)cc32)cc1F (stereo not drawn) [Example 266, 5-(4-((4-(1-ethyl-4-(trifluoromethyl)-1H-imidazol-2-yl)-3-fluorophenyl)amino)-4,5,6,7-tetrahydropyrazolo[1,5-α]pyridin-2-yl)-1-isopropyl-1H-pyrazole-4-carbonitrile]	> 25 min	100 to 500 nM	> 25 min	< 10 µM	< 10 µM	< 100 nM					
